Measurements taken from patent publication US20240239784A1, “INDOLE COMPOUNDS AND METHODS OF USE” (GENZYME CORPORATION, priority 2021, published 2024).

Test system: NBD1
Assay: Aggregation analysis of NBD1 thermal stability by differential static light scattering (DSLS)
Assay type: binding, Human
Conditions: compound at 100 μM; ΔTagg versus DMSO control
Experimental: Purified recombinant NBD1 was produced using previously described methods (A. Schmidt, J. L. Mendoza, P. J. Thomas (2011) Biochemical and Biophysical Approaches to Probe CFTR Structure (365-376) M. D. Amaral, K. Kunzelmann (eds.), Cysic Fibrosis, Methods in Molecular Biology 741, Springer Science+Business Media). The effect of test compounds on thermal stability of NBD1 was evaluated by differential static light scattering (DSLS) using the Harbinger Stargazer-384 instrument (Epiphyte Three, Toronto, Canada). Test compounds were dissolved and diluted to desired concentrations in 100% DMSO. The compounds or DMSO controls (100 nL) were stamped into wells of a […] low volume optical plate (Corning Inc., Corning, NY) using the Echo 555 acoustic liquid handler (Labcyte Inc., San Jose, CA).
NBD1 protein was diluted to 0.2 mg/ml in S200 buffer (50 mM Tris-HCl, 150 mM NaCl, 5 mM MgCl2, 2 mM ATP, 2 mM DTT, pH7.6) containing 1% glycerol. 10 uL of protein solution was aliquoted into the 384-well plate harboring the test compounds and 10 uL mineral oil was overlayed onto the protein solution, using the epMotion robotic liquid handler (Eppendorf North America, Hauppauge, NY). After placing into the Stargazer instrument, the plate was heated at 1° C. per minute to 70° C. Images were captured from 25° C. to 70° C. every 0.5° C. At the end of the experiment run, instrument software integrated image files and analyzed data automatically. A […] regression curve was generated for each well, representing the increase in light scattering over time. A temperature of aggregation (Tagg) was calculated based on the inflection point of the curve. To better compare data across experiments the average Tagg for DMSO control wells was calculated and subtracted from values for wells containing compounds to obtain a “ΔTagg” value. These ΔTagg values reflect stabilizing efficacy of the compounds.

SMILES | DSLS NBD1/3D Human Stability delta-T (° C.) @ 100 (μM)
CC(O)(c1ccccc1)c1cnc(-c2cccc(Oc3ccc4[nH]ccc4c3S(C)(=O)=O)c2)[nH]1 (racemic) [Example 63, 1-(2-(3-((4-(methylsulfonyl)-1H-indol-5-yl)oxy)phenyl)-1H-imidazol-5-yl)-1-phenylethan-1-ol] | A (T ≥8° C.)
OC(c1cccc(-c2nnc(Cc3ccccc3)[nH]2)c1)c1ccc2[nH]ccc2c1 (single isomer, unassigned) [Example 35A, (3-(5-Benzyl-4H-1,2,4-triazol-3-yl)phenyl)(1H-indol-5-yl)methanol] | B (4-8° C.)
OC(c1cccc(-c2nnc(Cc3ccccc3)[nH]2)c1)c1ccc2[nH]ccc2c1 (single isomer, unassigned) [Example 35B, (3-(5-Benzyl-4H-1,2,4-triazol-3-yl)phenyl)(1H-indol-5-yl)methanol] | C (≤4° C.)
CC(O)(c1ccccc1)c1cnc(-c2cccc(Oc3ccc4[nH]ccc4c3S(C)(=O)=O)c2)[nH]1 (single isomer, unassigned) [Example 63A, 1-(2-(3-((4-(methylsulfonyl)-1H-indol-5-yl)oxy)phenyl)-1H-imidazol-5-yl)-1-phenylethan-1-ol] | A (T ≥8° C.)
CC(O)(c1ccccc1)c1cnc(-c2cccc(Oc3ccc4[nH]ccc4c3S(C)(=O)=O)c2)[nH]1 (single isomer, unassigned) [Example 63B, 1-(2-(3-((4-(methylsulfonyl)-1H-indol-5-yl)oxy)phenyl)-1H-imidazol-5-yl)-1-phenylethan-1-ol] | B (4-8° C.)
CC(O)(c1ccccc1)c1c[nH]c(-c2cc(Oc3c(F)cc4[nH]ccc4c3CC3SC(=O)NC3=O)ccc2F)n1 (stereo not shown) [Example 1, 5-((6-Fluoro-5-(4-fluoro-3-(4-(1-hydroxy-1-phenylethyl)-1H-imidazol-2-yl)phenoxy)-1H-indol-4-yl)methyl)thiazolidine-2,4-dione] | A (T ≥8° C.)
CC(c1ccccc1)c1c[nH]c(-c2cc(Oc3c(F)cc4[nH]ccc4c3CC3SC(=O)NC3=O)ccc2F)n1 (stereo not shown) [Example 2, 5-((6-Fluoro-5-(4-fluoro-3-(4-(1-phenylethyl)-1H-imidazol-2-yl)phenoxy)-1H-indol-4-yl)methyl)thiazolidine-2,4-dione] | B (4-8° C.)
CC(O)(c1ccccc1)c1cnc(-c2cccc(Oc3c(F)cc4[nH]ccc4c3C=C3SC(=O)NC3=O)c2)[nH]1 (stereo not shown) [Example 3, 5-((6-fluoro-5-(3-(5-(1-hydroxy-1-phenylethyl)-1H-imidazol-2-yl)phenoxy)-1H-indol-4-yl)methylene)thiazolidine-2,4-dione] | A (T ≥8° C.)
CC(C)(c1ccccc1)c1cnc(-c2cc(Oc3c(F)cc4[nH]ccc4c3CC(=O)O)ccc2F)[nH]1 [Example 4, 2-(6-Fluoro-5-(4-fluoro-3-(5-(2-phenylpropan-2-yl)-1H-imidazol-2-yl)phenoxy)-1H-indol-4-yl)acetic acid] | A (T ≥8° C.)
CC(O)(c1ccccc1)c1cnc(-c2cccc(Oc3c(F)cc4[nH]ccc4c3S(C)(=O)=O)c2)[nH]1 (stereo not shown) [Example 5, 1-(2-(3-((6-Fluoro-4-(methylsulfonyl)-1H-indol-5-yl)oxy)phenyl)-1H-imidazol-5-yl)-1-phenylethan-1-ol] | A (T ≥8° C.)
CC(O)(c1ccccc1)c1c[nH]c(-c2cc(Oc3c(F)cc4[nH]ccc4c3S(C)(=N)=O)ccc2F)n1 (stereo not shown) [Example 6, (6-fluoro-5-(4-fluoro-3-(4-(1-hydroxy-1-phenylethyl)-1H-imidazol-2-y1)phenoxy)-1H-indol-4-y1)(imino)(methyl)-16-sulfanone] | A (T ≥8° C.)
COC(=O)c1c(Oc2cccc(-c3ncc(C(C)(O)c4ccccc4)[nH]3)c2)c(F)cc2[nH]ccc12 (stereo not shown) [Example 7, Methyl 6-fluoro-5-(3-(5-(1-hydroxy-1-phenylethyl)-1H-imidazol-2-yl)phenoxy)-1H-indole-4-carboxylate] | B (4-8° C.)
CC(O)(c1ccccc1)c1cnc(-c2cccc(Oc3c(F)cc4[nH]ccc4c3CO)c2)[nH]1 (stereo not shown) [Example 8, 1-(2-(3-((6-Fluoro-4-(hydroxymethyl)-1H-indol-5-yl)oxy)phenyl)-1H-imidazol-5-yl)-1-phenylethan-1-ol] | A (T ≥8° C.)
CC(O)(c1ccccc1)c1cnc(-c2cccc(Oc3c(F)cc4[nH]ccc4c3C(N)=O)c2)[nH]1 (stereo not shown) [Example 9, 6-Fluoro-5-(3-(5-(1-hydroxy-1-phenylethyl)-1H-imidazol-2-yl)phenoxy)-1H-indole-4-carboxamide] | A (T ≥8° C.)
CC(C)(c1ccccc1)c1cnc(-c2cc(Oc3c(F)cc4[nH]ccc4c3CCC(=O)O)ccc2F)[nH]1 [Example 10, 3-(6-Fluoro-5-(4-fluoro-3-(5-(2-phenylpropan-2-yl)-1H-imidazol-2-yl)phenoxy)-1H-indol-4-yl)propanoic acid] | A (T ≥8° C.)
O=C(O)Cc1c(Oc2cccc(-c3nnc(Cc4ccccc4)[nH]3)c2)ccc2[nH]ccc12 [Example 11, 2-(5-(3-(5-Benzyl-4H-1,2,4-triazol-3-yl)phenoxy)-1H-indol-4-yl)acetic acid] | B (4-8° C.)
O=C(Cc1c(Oc2cccc(-c3nnc(Cc4ccccc4)[nH]3)c2)ccc2[nH]ccc12)NS(=O)(=O)C1CC1 [Example 12, 2-(5-(3-(5-Benzyl-4H-1,2,4-triazol-3-yl)phenoxy)-1H-indol-4-yl)-N-(cyclopropylsulfonyl)acetamide] | A (T ≥8° C.)
Cc1c(Oc2ccc(F)c(-c3ncc(C(C)(CCC(=O)O)c4ccccc4)[nH]3)c2)c(F)cc2[nH]ccc12 (stereo not shown) [Example 13, 4-(2-(2-Fluoro-5-((6-fluoro-4-methyl-1H-indol-5-yl)oxy)phenyl)-1H-imidazol-5-yl)-4-phenylpentanoic acid] | B (4-8° C.)
CS(=O)(=O)c1c(Oc2cccc(-c3ncc(C(O)c4ccccc4)[nH]3)c2)c(F)cc2[nH]ccc12 (stereo not shown) [Example 14, (2-(3-((6-Fluoro-4-(methylsulfonyl)-1H-indol-5-yl)oxy)phenyl)-1H-imidazol-5-yl)(phenyl)methanol] | A (T ≥8° C.)
CS(=O)(=O)c1c(Oc2cccc(-c3ncc(C(N)c4ccccc4)[nH]3)c2)c(F)cc2[nH]ccc12 (stereo not shown) [Example 15, (2-(3-((6-Fluoro-4-(methylsulfonyl)-1H-indol-5-yl)oxy)phenyl)-1H-imidazol-5-yl)(phenyl)methanamine] | A (T ≥8° C.)
CC(O)(c1ccccc1)c1nnc(-c2cccc(Oc3ccc4[nH]ccc4n3)c2)[nH]1 (stereo not shown) [Example 16, 1-(5-(3-((1H-Pyrrolo[3,2-b]pyridin-5-yl)oxy)phenyl)-4H-1,2,4-triazol-3-yl)-1-phenylethan-1-ol] | B (4-8° C.)
NC(c1ccccc1)c1nnc(-c2cccc(Oc3ccc4[nH]ccc4n3)c2)[nH]1 (stereo not shown) [Example 17, (5-(3-((1H-Pyrrolo[3,2-b]pyridin-5-yl)oxy)phenyl)-4H-1,2,4-triazol-3-yl)(phenyl)methanamine] | B (4-8° C.)
CC(=O)NCc1c(Oc2cccc(-c3ncc(C(O)c4ccccc4)[nH]3)c2)ccc2[nH]ccc12 (stereo not shown) [Example 18, N-((5-(3-(5-(Hydroxy(phenyl)methyl)-1H-imidazol-2-yl)phenoxy)-1H-indol-4-yl)methyl)acetamide] | A (T ≥8° C.)
O=C(O)c1c(Oc2cccc(-c3nnc(Cc4ccccc4)[nH]3)c2)ccc2[nH]ccc12 [Example 19, 5-(3-(5-Benzyl-4H-1,2,4-triazol-3-yl)phenoxy)-1H-indole-4-carboxylic acid] | B (4-8° C.)
OCc1c(Oc2cccc(-c3nnc(Cc4ccccc4)[nH]3)c2)ccc2[nH]ccc12 [Example 20, (5-(3-(5-Benzyl-4H-1,2,4-triazol-3-yl)phenoxy)-1H-indol-4-yl)methanol] | B (4-8° C.)
CC(C)NCc1c(Oc2cccc(-c3nnc(Cc4ccccc4)[nH]3)c2)ccc2[nH]ccc12 [Example 21, N-((5-(3-(5-Benzyl-4H-1,2,4-triazol-3-yl)phenoxy)-1H-indol-4-yl)methyl)propan-2-amine 2,2,2-trifluoroacetate] | B (4-8° C.)
CNS(=O)(=O)c1c(Oc2ccc(F)c(-c3ncc(C(C)(O)c4ccccc4)[nH]3)c2)c(F)cc2[nH]ccc12 (stereo not shown) [Example 22, 6-Fluoro-5-(4-fluoro-3-(5-(1-hydroxy-1-phenylethyl)-1H-imidazol-2-yl)phenoxy)-N-methyl-1H-indole-4-sulfonamide] | B (4-8° C.)
OCc1c(Oc2cccc(-c3ncn(Cc4ccccc4)n3)c2)ccc2[nH]ccc12 [Example 23, (5-(3-(1-Benzyl-1H-1,2,4-triazol-3-yl)phenoxy)-1H-indol-4-yl)methanol] | B (4-8° C.)
